Legend:
NCI-H460 = assay: cells; type: cell-based; conditions: NCI-H460 (NSCLC)
LOX IMVI = assay: cells; type: cell-based; conditions: LOX IMVI (Melanoma)
K-562 = assay: cells; type: cell-based; conditions: K-562 (Leukemia)
HCT-15 = assay: cells; type: cell-based; conditions: HCT-15 (Colon Cancer)
COLO 205 = assay: cells; type: cell-based; conditions: COLO 205 (Colon Cancer)
truncated human RET = biological target: T1, truncated human RET (Homo sapiens, UniProt P07949); assay: Inhibition of enzymatic kinase activity (LANCE Ulight); type: biochemical
T1 construct: truncated human FAK, RET, FLT3, JAK2, and LRRK2 (CARNA BIOSCIENCES™); purchased Carna Biosciences
T1 sequence (P07949 658-1114 limits assumed): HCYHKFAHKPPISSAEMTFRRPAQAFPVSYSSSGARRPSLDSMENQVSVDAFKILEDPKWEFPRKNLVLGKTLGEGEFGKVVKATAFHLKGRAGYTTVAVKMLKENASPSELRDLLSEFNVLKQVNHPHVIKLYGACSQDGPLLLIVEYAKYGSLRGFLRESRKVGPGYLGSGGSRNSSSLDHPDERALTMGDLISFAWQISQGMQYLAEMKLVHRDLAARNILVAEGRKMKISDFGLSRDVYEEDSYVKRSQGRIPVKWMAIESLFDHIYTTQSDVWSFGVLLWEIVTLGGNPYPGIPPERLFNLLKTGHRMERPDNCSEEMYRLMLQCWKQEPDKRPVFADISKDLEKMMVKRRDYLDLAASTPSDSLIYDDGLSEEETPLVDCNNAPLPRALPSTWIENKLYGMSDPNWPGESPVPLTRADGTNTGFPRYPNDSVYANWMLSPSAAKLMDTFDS

truncated human FAK = biological target: T2, truncated human FAK (Homo sapiens, UniProt Q05397); assay: as above; type: biochemical; conditions: at 1 μM concentration; read-out: FAK percentage inhibition
T2 construct: truncated human FAK, RET, FLT3, JAK2, and LRRK2 (CARNA BIOSCIENCES™); purchased Carna Biosciences

truncated human LRRK2 = truncated human LRRK2 (Homo sapiens, UniProt Q5S007); assay: as above; type: biochemical
human ZAP70 = biological target: T3, human ZAP70 (Homo sapiens, UniProt P43403); assay: as above; type: biochemical; conditions: at 1 μM concentration; read-out: ZAP70 percentage inhibition
T3 construct: Purified full-length human SYK, ZAP70, PIM1, PYK2; purchased Carna Biosciences
T3 sequence (P43403 1-619): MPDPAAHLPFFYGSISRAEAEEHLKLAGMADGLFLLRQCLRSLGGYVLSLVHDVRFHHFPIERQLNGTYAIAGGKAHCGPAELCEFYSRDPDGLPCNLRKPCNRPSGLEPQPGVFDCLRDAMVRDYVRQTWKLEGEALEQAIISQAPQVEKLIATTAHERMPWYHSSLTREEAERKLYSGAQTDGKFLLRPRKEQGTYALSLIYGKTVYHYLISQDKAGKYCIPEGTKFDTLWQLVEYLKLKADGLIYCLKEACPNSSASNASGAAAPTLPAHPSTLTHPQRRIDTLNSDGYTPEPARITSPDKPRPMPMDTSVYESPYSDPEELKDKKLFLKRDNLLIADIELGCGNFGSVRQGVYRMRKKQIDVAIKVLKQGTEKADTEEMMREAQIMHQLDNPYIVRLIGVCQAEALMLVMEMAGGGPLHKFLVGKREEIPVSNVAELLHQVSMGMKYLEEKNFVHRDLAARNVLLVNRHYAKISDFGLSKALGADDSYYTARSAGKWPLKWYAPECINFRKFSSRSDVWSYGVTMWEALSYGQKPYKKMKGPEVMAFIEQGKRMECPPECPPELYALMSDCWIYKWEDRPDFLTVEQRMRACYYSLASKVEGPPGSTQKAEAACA

SK-MEL-5 = assay: cells; type: cell-based; conditions: SK-MEL-5 (Melanoma)
MALME-3M = assay: cells; type: cell-based; conditions: MALME-3M (Melanoma)
TK-10 = assay: cells; type: cell-based; conditions: TK-10 (Renal Cancer)
OVCAR-8 = assay: cells; type: cell-based; conditions: OVCAR-8 (Ovarian Cancer)
MDA-MB-231/ATCC = assay: cells; type: cell-based; conditions: MDA-MB-231/ATCC (Breast Cancer)
[1] = Homo sapiens, read-out: LC50 (the source's name)

T2 sequence (Q05397 376-1052 limits assumed): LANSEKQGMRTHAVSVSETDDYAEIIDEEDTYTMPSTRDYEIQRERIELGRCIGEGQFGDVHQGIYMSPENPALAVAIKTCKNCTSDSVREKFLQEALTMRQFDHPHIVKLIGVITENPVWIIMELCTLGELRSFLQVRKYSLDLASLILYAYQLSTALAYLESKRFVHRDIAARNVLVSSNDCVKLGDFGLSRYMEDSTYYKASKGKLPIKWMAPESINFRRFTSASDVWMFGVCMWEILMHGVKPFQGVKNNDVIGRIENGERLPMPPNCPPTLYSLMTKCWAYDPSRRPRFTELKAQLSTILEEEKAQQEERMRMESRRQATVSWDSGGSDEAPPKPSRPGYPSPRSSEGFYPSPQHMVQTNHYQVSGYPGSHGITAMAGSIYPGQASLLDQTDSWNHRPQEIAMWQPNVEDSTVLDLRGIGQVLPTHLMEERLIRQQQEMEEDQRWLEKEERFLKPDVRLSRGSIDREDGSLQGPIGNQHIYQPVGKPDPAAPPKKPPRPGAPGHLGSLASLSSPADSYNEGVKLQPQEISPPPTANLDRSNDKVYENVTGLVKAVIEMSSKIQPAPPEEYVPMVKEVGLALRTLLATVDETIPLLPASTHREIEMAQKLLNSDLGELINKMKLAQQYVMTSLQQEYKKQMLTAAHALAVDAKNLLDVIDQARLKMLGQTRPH
truncated human LRRK2, sequence (Q5S007 1879-2138 limits assumed): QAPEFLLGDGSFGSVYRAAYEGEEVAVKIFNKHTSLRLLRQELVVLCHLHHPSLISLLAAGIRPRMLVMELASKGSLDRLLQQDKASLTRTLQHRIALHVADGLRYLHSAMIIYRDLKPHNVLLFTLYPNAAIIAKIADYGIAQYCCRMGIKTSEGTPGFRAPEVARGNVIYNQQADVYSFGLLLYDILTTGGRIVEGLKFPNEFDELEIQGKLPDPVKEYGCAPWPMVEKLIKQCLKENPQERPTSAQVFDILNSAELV

O=c1[nH]ccc2nc(N3CCC(O)CC3)nc(Nc3cccc(C(F)(F)F)c3)c12 [Compound 6, 2-(4-hydroxypiperidin-1-yl)-4-(3-(trifluoromethyl)phenylamino)pyrido[4,3-d]pyrimidine-5(6H)-one]
GI50 (NCI-H460; Homo sapiens): 1.62 µM
IC50 (NCI-H460; Homo sapiens): 2.4 µM
CC50 (NCI-H460; [1]): 64.6 µM
TGI (NCI-H460): 15.1 µM
GI50 (LOX IMVI; Homo sapiens): 1.41 µM
IC50 (LOX IMVI; Homo sapiens): 2.63 µM
CC50 (LOX IMVI; [1]): 91.2 µM
TGI (LOX IMVI): 16.6 µM
GI50 (K-562; Homo sapiens, K562): 3.16 µM
IC50 (K-562; Homo sapiens, K562): 3.98 µM
CC50 (K-562; Homo sapiens, K562, read-out: LC50 (the source's name)): 100 µM
TGI (K-562): 100 µM
TGI (HCT-15): 31.6 µM
GI50 (HCT-15; Homo sapiens): 0.537 µM
IC50 (HCT-15; Homo sapiens): 0.759 µM
CC50 (HCT-15; [1]): 100 µM
TGI (COLO 205): 14.5 µM
GI50 (COLO 205; Homo sapiens): 3.09 µM
IC50 (COLO 205; Homo sapiens): 5.25 µM
CC50 (COLO 205; [1]): 45.7 µM
IC50 (truncated human RET): 0.0942 µM
inhibition at 1 µM (truncated human FAK): 78%
IC50 (truncated human LRRK2): 0.054 µM
inhibition at 1 µM (human ZAP70): 49%
GI50 (SK-MEL-5; Homo sapiens): 1.23 µM
IC50 (SK-MEL-5; Homo sapiens): 2.14 µM
CC50 (SK-MEL-5; [1]): 5.13 µM
TGI (SK-MEL-5): 2.51 µM
GI50 (MALME-3M; Homo sapiens): 2.63 µM
IC50 (MALME-3M; Homo sapiens): 9.77 µM
CC50 (MALME-3M; [1]): 32.4 µM
TGI (MALME-3M): 7.94 µM
GI50 (TK-10; Homo sapiens): 6.03 µM
IC50 (TK-10; Homo sapiens): 36.3 µM
CC50 (TK-10; [1]): 100 µM
TGI (TK-10): 44.7 µM
GI50 (OVCAR-8; Homo sapiens): 3.31 µM
IC50 (OVCAR-8; Homo sapiens): 5.01 µM
CC50 (OVCAR-8; [1]): 100 µM
TGI (OVCAR-8): 40.7 µM
GI50 (MDA-MB-231/ATCC; Homo sapiens): 12.3 µM
IC50 (MDA-MB-231/ATCC; Homo sapiens): ≥ 100 µM
CC50 (MDA-MB-231/ATCC; [1]): 100 µM
TGI (MDA-MB-231/ATCC): 100 µM

— US8404677B2, “Kinase inhibitors” (Genosco, priority 2009, dated 2013)
